Measured values from ChEMBL document CHEMBL3232753, “Synthesis and in vitro cytotoxic effect of 6-amino-substituted 11H- and 11Me-indolo[3,2-c]quinolines” (Eur J Med Chem, 2014).

Assays:
[1] = tested on: MV4-11; experiment: Cytotoxicity against human MV4-11 cells assessed as cell viability after 72 hrs by MTT assay; format: functional, cell-based; settings: MV4-11, 72 h
[2] = tested on: BALB/3T3; experiment: Cytotoxicity against mouse BALB/3T3 cells assessed as cell viability after 72 hrs by SRB assay; format: cell-based; settings: BALB/3T3, 72 h
[3] = tested on: A549; experiment: Cytotoxicity against human A549 cells assessed as cell viability after 72 hrs by SRB assay; format: functional, cell-based; settings: A549, 72 h
[4] = tested on: HCT-116; experiment: Cytotoxicity against human HCT116 cells assessed as cell viability after 72 hrs by SRB assay; format: functional, cell-based; settings: HCT-116, 72 h
[5] = tested on: Salmonidae; experiment: Binding affinity to Salmon fish sperm DNA by UV-visible spectroscopy
[6] = tested on: HCT-116; experiment: Selectivity ratio of IC50 for human MV4-11 cells to IC50 for human HCT116 cells; format: functional
[7] = tested on: A549; experiment: Selectivity ratio of IC50 for human A549 cells to IC50 for human HCT116 cells; format: functional

SMILES | IC50 [1] [nM] | IC50 [2] [nM] | IC50 [3] [nM] | IC50 [4] [nM] | K [5] [×10⁶ L/mol] | Ratio IC50 [6] | Ratio IC50 [7]
NCCCNc1nc2ccc(Cl)cc2c2[nH]c3ccccc3c12 | 560 | – | – | – | – | – | –
COc1ccc(Nc2nc3ccccc3c3[nH]c4ccccc4c23)c(OC)c1 | 7280 | – | – | – | – | – | –
CN(C)CCCNc1nc2ccccc2c2c1c1ccccc1n2C | 140 | 780 | 140 | 200 | – | – | –
NCCCNc1nc2cccc(Br)c2c2[nH]c3ccccc3c12 | 600 | – | – | – | – | – | –
NCCCNc1nc2ccc([N+](=O)[O-])cc2c2[nH]c3ccccc3c12 | 150 | 360 | 350 | 100 | – | – | –
c1ccc2c(c1)nc(N1CCOCC1)c1c3ccccc3[nH]c21 | 9430 | – | – | – | – | – | –
Cn1c2ccccc2c2c(NCC(C)(C)CN)nc3ccccc3c21 | 150 | 700 | 540 | 130 | – | – | –
NCCCNc1nc2ccccc2c2[nH]c3ccccc3c12 | 120 | 1050 | 170 | 260 | – | – | –
c1ccc(Nc2nc3ccccc3c3[nH]c4ccccc4c23)cc1 | 8370 | – | – | – | – | – | –
NCCCCCCNc1nc2ccccc2c2[nH]c3ccccc3c12 | 710 | 1070 | 1060 | 1080 | – | – | –
NCCCNc1nc2ccc(Br)cc2c2[nH]c3ccccc3c12 | 650 | – | – | – | – | – | –
CC(C)(CN)CNc1nc2ccc(Cl)cc2c2[nH]c3ccccc3c12 | 590 | – | – | – | – | – | –
Cn1c2ccccc2c2c(NCCCN)nc3ccc([N+](=O)[O-])cc3c21 | 50 | 80 | 110 | 10 | – | – | –
Cn1c2ccccc2c2c(NCCCN)nc3ccc(Cl)cc3c21 | 120 | 940 | 730 | 110 | – | – | –
CN(C)CCCNc1nc2ccc(Br)cc2c2c1c1ccccc1n2C | 390 | – | – | – | – | – | –
Cn1c2ccccc2c2c(NCCCN)nc3ccc(F)cc3c21 | 170 | 980 | 250 | 110 | – | – | –
NCCCCCNc1nc2ccccc2c2[nH]c3ccccc3c12 | 610 | 1010 | 1050 | 1060 | – | – | –
CN(C)CCCNc1nc2ccccc2c2[nH]c3ccccc3c12 | 410 | 1180 | 870 | 550 | 1.05 | – | –
Cn1c2ccccc2c2c(NCCCNC(=O)Nc3ccccc3)nc3ccccc3c21 | 570 | 6110 | 1190 | 820 | – | – | –
Cc1ccc2nc(NCCCN)c3c4ccccc4[nH]c3c2c1 | 140 | 920 | 210 | 80 | – | 8 | –
CN1CCCN(c2nc3ccccc3c3[nH]c4ccccc4c23)CC1 | 740 | 8960 | 1970 | 1650 | – | – | –
CCN(CC)CCCC(C)Nc1nc2ccc(Cl)cc2c2c1c1ccccc1n2C (configuration not stated) | 570 | – | – | – | – | – | –

SMILES | IC50 [1] [nM] | IC50 [2] [nM] | IC50 [3] [nM] | IC50 [4] [nM] | K [5] [×10⁶ L/mol] | Ratio IC50 [6] | Ratio IC50 [7]
Cn1c2ccccc2c2c(NCC(C)(C)CN)nc3ccc(Br)cc3c21 | 500 | – | – | – | – | – | –
c1ccc(CNc2nc3ccccc3c3[nH]c4ccccc4c23)cc1 | 770 | 8040 | 1990 | 1460 | – | – | –
Cn1c2ccccc2c2c(NCCCN)nc3ccc(Br)cc3c21 | 430 | – | – | – | – | – | –
NCCCCNc1nc2ccccc2c2[nH]c3ccccc3c12 | 700 | 1140 | 1160 | 1060 | – | – | –
COc1ccc2nc(NCCCN)c3c4ccccc4n(C)c3c2c1 | 100 | 100 | 110 | 10 | – | – | –
OCCNc1nc2ccccc2c2[nH]c3ccccc3c12 | 440 | 830 | 1450 | 190 | – | – | 7
Cn1c2ccccc2c2c(NCC(C)(C)CN)nc3ccc(Cl)cc3c21 | 560 | – | – | – | – | – | –
c1ccc2c(c1)nc(NCC1CCCO1)c1c3ccccc3[nH]c21 (configuration not stated) | 750 | 3040 | 1400 | 1280 | – | – | –
NCCCN1CCN(CCCNc2nc3ccccc3c3[nH]c4ccccc4c23)CC1 | 390 | 1150 | 760 | 980 | – | – | –
Clc1nc2ccccc2c2[nH]c3ccccc3c12 | 9140 | – | – | – | – | – | –
NCCCNc1nc2ccc(F)cc2c2[nH]c3ccccc3c12 | 590 | – | – | – | – | – | –
Cn1c2ccccc2c2c(NCCCN)nc3ccccc3c21 | 110 | 950 | 180 | 60 | – | – | –
CC(CN)CNc1nc2ccc(Cl)cc2c2[nH]c3ccccc3c12 (configuration not stated) | 620 | – | – | – | – | – | –
c1ccc2c(c1)nc(N1CCCNCC1)c1c3ccccc3[nH]c21 | 850 | 10100 | 2460 | 1730 | – | – | –
CCN(CC)CCCC(C)Nc1nc2ccccc2c2c1c1ccccc1n2C (configuration not stated) | 70 | 500 | 110 | 50 | – | – | –
Cn1c2ccccc2c2c(Cl)nc3ccccc3c21 | 16600 | – | – | – | – | – | –
Cc1ccc2nc(NCCCN)c3c4ccccc4n(C)c3c2c1 | 90 | 420 | 140 | 70 | – | – | –
OCCCNc1nc2ccccc2c2[nH]c3ccccc3c12 | 380 | 860 | 2210 | 260 | – | – | 7
COc1ccc2nc(NCCCN)c3c4ccccc4[nH]c3c2c1 | 120 | 310 | 160 | 70 | – | 8 | –
CN1CCCN(c2nc3ccccc3c3c2c2ccccc2n3C)CC1 | 960 | – | – | – | – | – | –
CN(C)CCCNc1nc2ccc(Cl)cc2c2c1c1ccccc1n2C | 80 | 820 | 570 | 100 | 4.84 | – | –
